Reference: patent publication US20200017496A1 (priority 2017, published 2020)

Test system: Escherichia coli (ECO) isolates
Assay: MIC of compounds alone and combined with antibacterials, broth microdilution (CLSI)
Type: cell-based
Conditions: for MIC: Escherichia coli, ATB alone
Method in brief: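 Compound MIC, and antibacterial MIC at each fixed compound level, taken by visual inspection as lowest concentration stopping growth. Inoculum: log-phase bacteria, final 5·10^5 CFU/mL, cation-adjusted Mueller-Hinton broth; 16-20 h, 35° C, ambient air.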

CC(C)(O/N=C(\C(=O)N[C@@H]1C(=O)N2C(C(=O)[O-])=C(C[n+]3ccccc3)CS[C@H]12)c1csc(N)n1)C(=O)O [CAZ, Ceftazidime]
MIC ATB in combination (ECO 4133, AF1 @ 4 μg/mL): <=0.25 μg/mL
MIC ATB in combination (ECO 4133, AF1 @ 8 μg/mL): <=0.25 μg/mL
MIC ATB in combination (ECO 5302, AF1 @ 4 μg/mL): <=0.25 μg/mL
MIC ATB in combination (ECO 5302, AF1 @ 8 μg/mL): <=0.25 μg/mL
MIC ATB in combination (ECO 131119, AF1 @ 4 μg/mL): <=0.25 μg/mL
MIC ATB in combination (ECO 131119, AF1 @ 8 μg/mL): <=0.25 μg/mL
MIC ATB in combination (ECO 180070, AF1 @ 4 μg/mL): <=0.25 μg/mL
MIC ATB in combination (ECO 180070, AF1 @ 8 μg/mL): <=0.25 μg/mL
MIC ATB in combination (ECO 190314, AF1 @ 4 μg/mL): 0.5 µg/mL
MIC ATB in combination (ECO 190314, AF1 @ 8 μg/mL): <=0.25 μg/mL
MIC ATB in combination (ECO 190317, AF1 @ 8 μg/mL): <=0.25 μg/mL
MIC ATB in combination (ECO 190457, AF1 @ 4 μg/mL): <=0.25 μg/mL
MIC ATB in combination (ECO 190457, AF1 @ 8 μg/mL): <=0.25 μg/mL
MIC ATB in combination (ECO 190549, AF1 @ 4 μg/mL): <=0.25 μg/mL
MIC ATB in combination (ECO 190549, AF1 @ 8 μg/mL): <=0.25 μg/mL
MIC ATB in combination (ECO 200159, AF1 @ 4 μg/mL): <=0.25 μg/mL
MIC ATB in combination (ECO 200159, AF1 @ 8 μg/mL): <=0.25 μg/mL
MIC ATB in combination (ECO 200259, AF1 @ 4 μg/mL): <=0.25 μg/mL
MIC ATB in combination (ECO 200259, AF1 @ 8 μg/mL): <=0.25 μg/mL
MIC ATB in combination (ECO 200344, AF1 @ 4 μg/mL): <=0.25 μg/mL
MIC ATB in combination (ECO 200344, AF1 @ 8 μg/mL): <=0.25 μg/mL
MIC ATB in combination (ECO 260096, AF1 @ 4 μg/mL): <=0.25 μg/mL
MIC ATB in combination (ECO 260096, AF1 @ 8 μg/mL): <=0.25 μg/mL
MIC ATB in combination (ECO 260304, AF1 @ 4 μg/mL): <=0.25 μg/mL
MIC ATB in combination (ECO 260304, AF1 @ 8 μg/mL): <=0.25 μg/mL
MIC ATB in combination (ECO 260508, AF1 @ 4 μg/mL): <=0.25 μg/mL
MIC ATB in combination (ECO 260508, AF1 @ 8 μg/mL): <=0.25 μg/mL
MIC ATB in combination (ECO RGN238, AF1 @ 4 μg/mL): <=0.25 μg/mL
MIC ATB in combination (ECO RGN238, AF1 @ 8 μg/mL): <=0.25 μg/mL
MIC ATB in combination (ECO UFR15, AF1 @ 4 μg/mL): <=0.25 μg/mL
MIC ATB in combination (ECO UFR15, AF1 @ 8 μg/mL): <=0.25 μg/mL
MIC ATB in combination (ECO UFR16, AF1 @ 4 μg/mL): <=0.25 μg/mL
MIC ATB in combination (ECO UFR16, AF1 @ 8 μg/mL): <=0.25 μg/mL
MIC ATB in combination (ECO UFR17, AF1 @ 4 μg/mL): 16 µg/mL
MIC ATB in combination (ECO UFR17, AF1 @ 8 μg/mL): 2 µg/mL
MIC ATB in combination (ECO UFR18, AF1 @ 4 μg/mL): 1 µg/mL
MIC ATB in combination (ECO UFR18, AF1 @ 8 μg/mL): <=0.25 μg/mL
MIC ATB in combination (ECO UFR19, AF1 @ 4 μg/mL): 1 µg/mL
MIC ATB in combination (ECO UFR19, AF1 @ 8 μg/mL): <=0.25 μg/mL
MIC ATB in combination (ECO UFR20, AF1 @ 4 μg/mL): 1 µg/mL
MIC ATB in combination (ECO UFR20, AF1 @ 8 μg/mL): 1 µg/mL
MIC ATB in combination (ECO UFR61O, AF1 @ 4 μg/mL): 2 µg/mL
MIC ATB in combination (ECO UFR61O, AF1 @ 8 μg/mL): 0.5 µg/mL
MIC ATB in combination (ECO UFR62, AF1 @ 4 μg/mL): <=0.25 μg/mL
MIC ATB in combination (ECO UFR62, AF1 @ 8 μg/mL): <=0.25 μg/mL
MIC ATB in combination (ECO UFR74, AF1 @ 4 μg/mL): 1 µg/mL
MIC ATB in combination (ECO UFR74, AF1 @ 8 μg/mL): <=0.25 μg/mL
MIC ATB in combination (ECO UFR86, AF1 @ 4 μg/mL): 1 µg/mL
MIC ATB in combination (ECO UFR86, AF1 @ 8 μg/mL): <=0.25 μg/mL
MIC ATB in combination (ECO UFR174, AF1 @ 4 μg/mL): <=0.25 μg/mL
MIC ATB in combination (ECO UFR174, AF1 @ 8 μg/mL): <0.25 µg/mL
MIC ATB in combination (ECO UFR175, AF1 @ 4 μg/mL): 2 µg/mL
MIC ATB in combination (ECO UFR175, AF1 @ 8 μg/mL): <=0.25 μg/mL
MIC ATB in combination (ECO UFR176, AF1 @ 4 μg/mL): 2 µg/mL
MIC ATB in combination (ECO UFR176, AF1 @ 8 μg/mL): <=0.25 μg/mL
MIC ATB in combination (ECO UFR184, AF1 @ 4 μg/mL): 1 µg/mL
MIC ATB in combination (ECO UFR184, AF1 @ 8 μg/mL): <=0.25 μg/mL
MIC ATB in combination (ECO UFR185, AF1 @ 4 μg/mL): 2 µg/mL
MIC ATB in combination (ECO UFR185, AF1 @ 8 μg/mL): <0.25 µg/mL
MIC ATB in combination (ECO UFR186, AF1 @ 4 μg/mL): <=0.25 μg/mL
MIC ATB in combination (ECO UFR186, AF1 @ 8 μg/mL): <=0.25 μg/mL
MIC ATB in combination (ECO UFR187, AF1 @ 4 μg/mL): 1 µg/mL
MIC ATB in combination (ECO UFR187, AF1 @ 8 μg/mL): <=0.25 μg/mL
MIC ATB in combination (ECO UFR189, AF1 @ 4 μg/mL): <=0.25 μg/mL
MIC ATB in combination (ECO UFR189, AF1 @ 8 μg/mL): <=0.25 μg/mL
MIC ATB in combination (ECO UFR190, AF1 @ 4 μg/mL): <=0.25 μg/mL
MIC ATB in combination (ECO UFR190, AF1 @ 8 μg/mL): <=0.25 μg/mL
MIC ATB in combination (ECO UFR191, AF1 @ 4 μg/mL): <=0.25 μg/mL
MIC ATB in combination (ECO UFR191, AF1 @ 8 μg/mL): <=0.25 μg/mL
MIC ATB in combination (ECO UFR207, AF1 @ 4 μg/mL): <=0.25 μg/mL
MIC ATB in combination (ECO UFR207, AF1 @ 8 μg/mL): <=0.25 μg/mL
MIC ATB in combination (ECO UFR208, AF1 @ 4 μg/mL): 4 µg/mL
MIC ATB in combination (ECO UFR208, AF1 @ 8 μg/mL): 2 µg/mL
MIC ATB in combination (ECO UFR209, AF1 @ 4 μg/mL): <=0.25 μg/mL
MIC ATB in combination (ECO UFR209, AF1 @ 8 μg/mL): <=0.25 μg/mL
MIC ATB in combination (ECO UFR210, AF1 @ 4 μg/mL): <=0.25 μg/mL
MIC ATB in combination (ECO UFR210, AF1 @ 8 μg/mL): <=0.25 μg/mL
MIC ATB in combination (ECO UFR211, AF1 @ 4 μg/mL): 0.5 µg/mL
MIC ATB in combination (ECO UFR211, AF1 @ 8 μg/mL): <=0.25 μg/mL
MIC ATB in combination (ECO UFR212, AF1 @ 4 μg/mL): 4 µg/mL
MIC ATB in combination (ECO UFR212, AF1 @ 8 μg/mL): <=0.25 μg/mL
MIC ATB in combination (ECO UFR218, AF1 @ 4 μg/mL): <=0.25 μg/mL
MIC ATB in combination (ECO UFR218, AF1 @ 8 μg/mL): <0.25 µg/mL
MIC (strain ECO 4133 (TEM-30, OXA-1)): 0.5 µg/mL
MIC (strain ECO 5302 (TEM-1, OXA-1)): 0.5 µg/mL
MIC (strain ECO 131119 (TEM-1, OXA-48)): 0.5 µg/mL
